Series [1] has as its target T1, telomerase (Homo sapiens, UniProt O14746).
T1 construct: placing cells, tissues, or preferably a cellular extract or other preparation containing telomerase in contact with; endogenous in cells
As to the kind of experiment: Inhibition of telomerase activity (IC50). The format is biochemical. The source says: One method used to identify compounds of the invention that inhibit telomerase activity involves placing cells, tissues, or preferably a cellular extract or other preparation containing telomerase in contact with several known concentrations of a test compound in a buffer compatible with telomerase activity. […] Other methods for determining the inhibitory concentration of a compound of the invention against telomerase can be employed as will be apparent to those of skill in the art based on the disclosure herein.
With the above-described methods, IC50 values for several of the compounds of the present invention were determined. The values reported in Table 3 below are only approximate values; more exact IC50 values can be obtained by repetitive testing.

A short description of series [2]: Half-life of Compound XIV. The series is classed as in vitro ADME. The settings on record: additional data suggest; on the order of about.
The subject of series [3] is telomerase-positive cells. As to the kind of experiment: Telomere length in telomerase-positive cells treated with Compound XIV (one uncontrolled experiment). The format is cell-based. To be noted: dosing period of about 48 hours. The protocol: Colonies of the tumor cell lines, such as the ovarian tumor cell lines OVCAR-5 and SK-OV-3, and normal human cells used as a control (e.g., normal human BJ cells) are prepared using standard methods and materials. In one test, the colonies are prepared by seeding 15-centimeter dishes with about 10^6 cells in each dish. The dishes are incubated to allow the cell colonies to grow to about 80% confluence, at which time each of the colonies are divided into two groups. One group is exposed to a subacute dose of a compound of the invention at a predetermined concentration (e.g., between about 5 μM and about 20 μM) for a period of about 4-8 hours after plating following the split; the other group is exposed to a control (e.g., DMSO).
Each group is then allowed to continue to divide, and the groups are split evenly again (near confluence). The same number of cells are seeded for continued growth. The compound or control is added every fourth day to the samples at the same concentration delivered initially. Remaining cells are analyzed for telomere length. As the untested cell cultures near confluence, the samples are split again as just described. […]
Telomere length is determined by digesting the DNA of the cells using restriction enzymes specific for sequences other than the repetitive T2 AG3 sequence of human telomeres. […]

[4] abbreviates: Table 3, only approximate values.
Where [5] appears, read: approximate IC50 values, summary of the table.

SMILES strings stand for the structures.

T1 sequence (O14746 whole entry): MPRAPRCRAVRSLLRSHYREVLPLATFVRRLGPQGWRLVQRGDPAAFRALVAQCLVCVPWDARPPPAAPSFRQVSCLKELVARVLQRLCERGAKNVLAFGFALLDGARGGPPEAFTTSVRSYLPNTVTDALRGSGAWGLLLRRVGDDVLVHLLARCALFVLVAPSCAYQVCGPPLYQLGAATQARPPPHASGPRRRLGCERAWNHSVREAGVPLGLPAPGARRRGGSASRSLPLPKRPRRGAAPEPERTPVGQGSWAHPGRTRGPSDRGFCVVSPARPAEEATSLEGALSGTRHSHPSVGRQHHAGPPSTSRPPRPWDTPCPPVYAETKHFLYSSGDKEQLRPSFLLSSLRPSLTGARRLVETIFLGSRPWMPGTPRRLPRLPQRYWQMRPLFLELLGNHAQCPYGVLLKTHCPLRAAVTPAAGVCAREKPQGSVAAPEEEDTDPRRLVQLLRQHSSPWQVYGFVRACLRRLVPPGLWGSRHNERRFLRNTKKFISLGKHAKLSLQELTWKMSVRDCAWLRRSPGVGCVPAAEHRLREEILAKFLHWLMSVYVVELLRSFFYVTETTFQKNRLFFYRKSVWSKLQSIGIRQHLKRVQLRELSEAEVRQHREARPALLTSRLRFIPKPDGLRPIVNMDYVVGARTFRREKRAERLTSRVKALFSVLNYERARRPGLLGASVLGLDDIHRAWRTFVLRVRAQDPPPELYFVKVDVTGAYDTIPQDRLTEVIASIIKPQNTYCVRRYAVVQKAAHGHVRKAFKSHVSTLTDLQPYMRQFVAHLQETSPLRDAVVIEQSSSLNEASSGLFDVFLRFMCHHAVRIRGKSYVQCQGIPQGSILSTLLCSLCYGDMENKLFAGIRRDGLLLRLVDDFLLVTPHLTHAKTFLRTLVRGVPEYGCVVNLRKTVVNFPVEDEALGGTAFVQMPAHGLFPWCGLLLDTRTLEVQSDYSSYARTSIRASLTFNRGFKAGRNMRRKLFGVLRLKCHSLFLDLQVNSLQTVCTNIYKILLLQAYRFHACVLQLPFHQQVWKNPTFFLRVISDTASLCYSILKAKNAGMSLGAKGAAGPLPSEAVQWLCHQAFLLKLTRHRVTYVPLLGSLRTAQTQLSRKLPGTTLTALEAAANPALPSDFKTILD
T1 sequence (O60832 whole entry partner): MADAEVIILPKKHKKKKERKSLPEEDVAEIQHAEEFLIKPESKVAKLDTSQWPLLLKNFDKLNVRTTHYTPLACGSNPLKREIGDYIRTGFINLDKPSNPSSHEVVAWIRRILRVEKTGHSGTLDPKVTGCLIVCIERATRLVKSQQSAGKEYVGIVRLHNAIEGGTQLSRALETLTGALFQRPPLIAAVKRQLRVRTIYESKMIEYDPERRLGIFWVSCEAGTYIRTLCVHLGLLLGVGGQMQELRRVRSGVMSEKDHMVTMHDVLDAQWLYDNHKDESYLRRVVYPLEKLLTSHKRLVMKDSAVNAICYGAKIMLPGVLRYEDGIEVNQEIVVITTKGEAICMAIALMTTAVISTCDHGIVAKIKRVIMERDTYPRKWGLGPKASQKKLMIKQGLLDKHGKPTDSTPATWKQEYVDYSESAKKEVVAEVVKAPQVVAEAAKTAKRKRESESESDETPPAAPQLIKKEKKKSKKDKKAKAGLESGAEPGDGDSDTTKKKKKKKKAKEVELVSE
T1 sequence (Q9NPE3 whole entry partner): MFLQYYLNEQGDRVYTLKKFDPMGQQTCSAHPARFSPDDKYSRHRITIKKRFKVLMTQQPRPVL
T1 sequence (Q9NX24 whole entry partner): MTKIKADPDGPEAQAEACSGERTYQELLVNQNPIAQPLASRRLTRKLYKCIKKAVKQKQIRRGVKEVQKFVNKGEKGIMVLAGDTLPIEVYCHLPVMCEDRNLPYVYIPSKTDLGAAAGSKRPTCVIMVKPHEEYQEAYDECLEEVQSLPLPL
T1 sequence (Q9NY12 whole entry partner): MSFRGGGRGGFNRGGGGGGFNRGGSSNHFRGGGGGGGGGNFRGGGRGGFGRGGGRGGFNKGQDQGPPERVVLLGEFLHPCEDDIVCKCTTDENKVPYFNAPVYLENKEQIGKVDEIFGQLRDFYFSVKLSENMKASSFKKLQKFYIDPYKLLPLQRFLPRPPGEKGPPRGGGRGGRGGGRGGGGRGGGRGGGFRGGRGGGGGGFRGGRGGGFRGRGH

As for `COc1ccc(N=Cc2ccc(C#N)c(SCc3ccc(Cl)s3)n2)nc1` [Compound LIII], the values for the 50% inhibitory concentration (IC50) in series [1] (setting [4]) and in series [1] (setting [5]) were 5 µM and less than 5 µM, respectively.

In the case of `N#Cc1ccc(C=Nc2ccc(Br)cn2)nc1SCc1ccc(Cl)s1` [Compound LII], the half-inhibitory concentration (IC50) in series [1] (setting [4]) is less than 3.2 µM; in series [1] (setting [5]), less than 5 µM.

`Cc1ccc(NN=Cc2ccc(C#N)c(SCc3ccc(Cl)c(Cl)c3)n2)cc1` [Compound LIV]: in series [1] (setting [4]), the IC50 was 17 µM. This counts as double-digit micromolar.

In series [1] (setting [4]), `N#Cc1ccc(C=NNC(=S)Nc2ccc(F)cc2)nc1SCc1ccc(Cl)c(Cl)c1` [Compound LVII] had an IC50 of 18 µM.

`Cc1ccc(NC(=S)NN=Cc2ccc(C#N)c(SCc3ccc(Cl)c(Cl)c3)n2)cc1` [Compound LVI] gave an IC50 in series [1] (setting [4]) of 18 µM. This counts as double-digit micromolar.

Consider `N#Cc1ccc(C=NNc2ccc(Cl)cc2)nc1SCc1ccc(Cl)c(Cl)c1` [Compound LV], for which it took 19.2 µM to reach half-maximal inhibition in series [1] (setting [4]) (IC50).

Consider `Cc1cccnc1N=Cc1ccc(C#N)c(SCc2ccc(Cl)c(Cl)c2)n1` [Compound XIV], for which the results for the IC50 in series [1] (setting [4]) and in series [1] (setting [5]) were less than 3.2 µM and less than 5 µM, respectively. In series [2], this molecule gave a half-life of roughly 12 h. In addition, the “shorting of telomere length” value in series [3] was “No significant shorting of telomere length was observed”.

In series [1] (setting [4]), `Cc1cccnc1N=Cc1ccc(C#N)c(SCc2ccccc2C(F)(F)F)n1` [Compound XIX] came in with an IC50 of 3 µM. That is a single-digit micromolar value.

For `Cc1cccnc1N=Cc1ccc(C#N)c(SCc2ccc3c(c2)C(C)(C)CCC3(C)C)n1` [Compound XLIII], the figures for the half-maximal inhibitory concentration (IC50) in series [1] (setting [4]) and in series [1] (setting [5]) were less than 3.2 µM and less than 5 µM, respectively.

Consider `Cc1cccnc1N=Cc1ccc(C#N)c(SCc2csc3ccc(Cl)cc23)n1` [Compound XLVII], for which the results for the 50% inhibitory concentration (IC50) in series [1] (setting [4]) and in series [1] (setting [5]) were less than 3.2 µM and less than 5 µM, respectively.

Turning to `Cc1cccnc1N=Cc1ccc(C#N)c(SCc2ccccc2-c2ccccc2)n1` [Compound XVIII], the IC50 in series [1] (setting [4]) was found to be 2 µM.

For the molecule `Cc1cccnc1N=Cc1ccc(C#N)c(SCc2cc(C(F)(F)F)cc(C(F)(F)F)c2)n1` [Compound XVII], the midpoint of inhibition in series [1] (setting [4]), the IC50, lay at 2 µM.

Regarding `Cc1cccnc1N=Cc1ccc(C#N)c(SCc2c(Cl)cccc2Cl)n1` [Compound XVI], in series [1] (setting [4]), half-maximal inhibition (IC50) required 1 µM.

Molecule `Cc1ccnc(N=Cc2ccc(C#N)c(SCc3ccc(Cl)c(Cl)c3)n2)c1` [Compound XV] gave an IC50 in series [1] (setting [4]) of 8 µM. Compared with the last molecule, the IC50 is about 8-fold higher.

Consider `Cc1cccnc1N=Cc1ccc(C#N)c(SCc2ccccc2Br)n1` [Compound XXIII], for which half-maximal inhibition in series [1] (setting [4]) (IC50) required 2 µM.

Take `Cc1cccnc1N=Cc1ccc(C#N)c(SCc2ccc(-c3ccccc3)cc2)n1` [Compound XXII]: the half-inhibitory concentration (IC50) in series [1] (setting [4]) stood at 2 µM.

As to `Cc1ccccc1CSc1nc(C=Nc2ncccc2C)ccc1C#N` [Compound XXIV], the IC50 in series [1] (setting [4]) was 3 µM.

The molecule `Cc1cc(C)cc(CSc2nc(C=Nc3ncccc3C)ccc2C#N)c1` [Compound XXIX] gave an IC50 in series [1] (setting [4]) of 2 µM.

`Cc1cccnc1N=Cc1ccc(C#N)c(SCc2ccc(C(C)C)cc2)n1` [Compound XXI] returned an IC50 in series [1] (setting [4]) of 2 µM.

Molecule `Cc1cccnc1N=Cc1ccc(C#N)c(SCc2ccc(C(F)(F)F)cc2C(F)(F)F)n1` [Compound XXVII] gave an IC50 in series [1] (setting [4]) of 5 µM.

In the case of `Cc1ccc(C)c(CSc2nc(C=Nc3ncccc3C)ccc2C#N)c1` [Compound XXVI], in series [1] (setting [4]), it took 0.9 µM to reach half-maximal inhibition (IC50).

Consider `Cc1cccnc1N=Cc1ccc(C#N)c(SCc2cc(Cl)cc3c2OCOC3)n1` [Compound XXV], for which the IC50 in series [1] (setting [4]) came out at 4 µM.

Take `Cc1cccnc1N=Cc1ccc(C#N)c(SCc2cc(Cl)cc(Cl)c2)n1` [Compound XXXII]: the half-inhibitory concentration (IC50) in series [1] (setting [4]) was less than 3.2 µM.

`Cc1ccc(CSc2nc(C=Nc3ncccc3C)ccc2C#N)c(C)c1` [Compound XXXI]: the half-inhibitory concentration (IC50) in series [1] (setting [4]) was less than 3.2 µM.

`Cc1cccnc1N=Cc1ccc(C#N)c(SCc2cc(Cl)cc(Cl)c2)n1` [Compound XXXVII]: the IC50 in series [1] (setting [5]) is less than 5 µM.

In turn, `Cc1cccnc1N=Cc1ccc(C#N)c(SCc2ccc(C(C)(C)C)cc2)n1` [Compound XXX] showed an IC50 in series [1] (setting [4]) of 2 µM.

Take `Cc1cccnc1N=Cc1ccc(C#N)c(SCc2ccc(C=Cc3ccccc3)cc2)n1` [Compound XX]: the IC50 in series [1] (setting [4]) stood at 8 µM.

Molecule `CCN1C(=O)c2ccc(N=Cc3ccc(C#N)c(SCc4ccc(Cl)c(Cl)c4)n3)cc2C1=O` [Compound X] had an IC50 in series [1] (setting [4]) of 9 µM.

Molecule `N#Cc1ccc(C=Nc2ccc(Cl)cc2)nc1SCc1ccc(Cl)c(Cl)c1` [III] registered an IC50 in series [1] (setting [4]) of 6.5 µM.

For `COc1ccc(N=Cc2ccc(C#N)c(SCc3ccc(Cl)c(Cl)c3)n2)cc1` [IV], the IC50 in series [1] (setting [4]) was 4.9 µM; in series [1] (setting [5]), less than 5 µM.

With `N#Cc1ccc(C=Nc2ccc3c(c2)C(=O)N(Cc2ccccc2)C3=O)nc1SCc1ccc(Cl)c(Cl)c1` [IX], in series [1] (setting [4]), 8 µM corresponded to half-maximal inhibition (IC50).

Take `Cc1cccnc1N=Cc1ccc(C#N)c(SCC#CCSc2nc(C=Nc3ncccc3C)ccc2C#N)n1` [LXI]: the values for the IC50 in series [1] (setting [4]) and in series [1] (setting [5]) were less than 3.2 µM and less than 5 µM, respectively.

Consider `N#Cc1ccc(C=Nc2ccc3c(c2)OCCO3)nc1SCc1ccc(Cl)c(Cl)c1` [VIII], for which half-maximal inhibition in series [1] (setting [4]) (IC50) was put at 10 µM.

For `N#Cc1ccc(C=Nc2ccc(Br)c(C(F)(F)F)c2)nc1SCc1ccc(Cl)c(Cl)c1` [VII], the IC50 in series [1] (setting [4]) was found to be 12 µM.

In series [1] (setting [4]), `N#Cc1ccc(C=Nc2ccc(F)c(F)c2)nc1SCc1ccc(Cl)c(Cl)c1` [VI] registered a concentration for half-maximal inhibition (IC50) of 10 µM.

The molecule `N#Cc1ccc(N=Cc2ccc(C#N)c(SCc3ccc(Cl)c(Cl)c3)n2)cc1Cl` [V] gave an IC50 in series [1] (setting [4]) of 10 µM.

On to `Cc1ccc(N=Cc2ccc(C#N)c(SCc3ccc(Cl)c(Cl)c3)n2)nc1` [XIII], for which inhibition in series [1] (setting [4]) was half-maximal at 7 µM (IC50).

Take `Cc1nc(N=Cc2ccc(C#N)c(SCc3ccc(Cl)c(Cl)c3)n2)ccc1Br` [XII]: in series [1] (setting [4]), the IC50 is 7 µM.

Consider `Cc1cccnc1N=Cc1ccc(C#N)c(SCc2cccc(Cl)c2F)n1` [XXVIII], for which the IC50 in series [1] (setting [4]) was 2 µM.

By IC50 is commonly meant the midpoint of a concentration-inhibition curve. High values mean weaker potency in that assay, low ones greater potency in that assay. For orientation: half-life means the time in which the quantity being followed falls by half.
